These are literature values, as cited in patent US10926237B2, “Soluble corrosion resistant sol-gel” (THE BOEING COMPANY, priority 2018, dated 2021).

As to `Sc1nnc(S)s1` [2,5-Dimercapto-1,3,4-thiadiazole, 2,5-dimercapto-1,3,4-thiadiazole], the “water solubility (in words)” value is “water soluble”.
